Target: T1, HSL (Rattus norvegicus, UniProt P15304)
T1 construct: The partially purified HSL can be stored at −70° C. for 4 to 6 weeks; from tissue; host or cells: rat epididymal fat cells (male Wistar rats)
T1 sequence (P15304 1-768 isoform P15304-2): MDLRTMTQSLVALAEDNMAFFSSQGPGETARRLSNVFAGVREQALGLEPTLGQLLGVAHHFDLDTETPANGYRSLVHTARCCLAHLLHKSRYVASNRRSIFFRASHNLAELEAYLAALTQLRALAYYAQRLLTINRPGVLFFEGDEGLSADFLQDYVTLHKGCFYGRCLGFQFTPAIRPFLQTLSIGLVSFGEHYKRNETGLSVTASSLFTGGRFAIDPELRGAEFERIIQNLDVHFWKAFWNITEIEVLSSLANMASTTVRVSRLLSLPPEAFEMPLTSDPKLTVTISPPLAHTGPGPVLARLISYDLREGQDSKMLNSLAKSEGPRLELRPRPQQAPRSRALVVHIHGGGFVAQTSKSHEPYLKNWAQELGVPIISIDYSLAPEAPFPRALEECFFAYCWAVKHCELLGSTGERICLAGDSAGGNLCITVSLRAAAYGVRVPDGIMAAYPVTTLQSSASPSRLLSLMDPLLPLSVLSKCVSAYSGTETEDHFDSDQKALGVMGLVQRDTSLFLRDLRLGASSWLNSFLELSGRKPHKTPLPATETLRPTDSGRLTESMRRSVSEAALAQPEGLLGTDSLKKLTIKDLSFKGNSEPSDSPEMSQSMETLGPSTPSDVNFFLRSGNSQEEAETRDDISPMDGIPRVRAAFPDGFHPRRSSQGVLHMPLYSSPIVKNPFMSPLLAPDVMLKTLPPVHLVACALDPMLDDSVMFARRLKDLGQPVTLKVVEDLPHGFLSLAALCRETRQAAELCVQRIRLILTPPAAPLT
Test: Indirect NAG assay (extinction increase at 481 nm)
Assay type: biochemical
Conditions: 60 min
Experimental: A typical reaction is carried out at 30° C. for 60 min, for example in 1.5 ml Eppendorf vessels or 96-hole plates. […] 180 μl of the substrate solution (20 μg/ml of phosphatidylcholine, 10 μg/ml of phosphatidylinositol, 50 μg/ml of NAG in assay buffer) are added. After a preincubation for 15 min at 30° C., 20 μl of HSL in assay buffer are pipetted in and the extinction is immediately measured (see above) at 481 nm in a cuvette photometer (0.5 ml cuvette) or microtiter plate reader. After a certain incubation time, which is variable and depends on the chosen enzyme concentration and can be between 2 and 240 minutes, in this case incubation at 30° C. for 60 min, the extinction is measured again. The increase in the extinction in the yellow region, in this case at 481 nm, is a measure of the enzyme activity.
Isolated rat fat cells are obtained from epididymal fatty tissue from untreated male rats (Wistar, 220-250 g) by collagenase treatment according to published processes. The fat cells from 10 rats are washed three times by flotation with 50 ml each of homogenization buffer ([…], pH 7.4, 0.25 M sucrose, 1 mM ethylenediamine-N,N,N′,N′-tetraacetic acid (EDTA), 1 mM dithiothreitol (DTT), 10 μg/ml of leupeptin, 10 μg/ml of antipain, 20 μg/ml of pepstatin) and finally taken up in 10 ml of homogenization buffer. The fat cells are homogenized in a Teflon-in-glass homogenizer (Braun-Melsungen) by 10 strokes at 1500 rpm and 15° C. The homogenizate is centrifuged (Sorvall SM24 tubes, 5000 rpm, 10 min, 4° C.). The […] between the overlying fatty layer and the pellet is removed and the centrifugation is repeated. The […] resulting from this is centrifuged again (Sorvall SM24 tubes, 20,000 rpm, 45 min, 4° C.). […] After incubation for 60 min at 4° C. (shake at intervals of 15 min), the batch is centrifuged (Sorvall SM24 tubes, 3000 rpm, 10 min, 4° C.). The supernatant is brought to pH 5.2 by addition of glacial acetic acid and incubated at 4° C. for 30 min. […] The suspension is dialyzed overnight at 4° C. against 25 mM TRIS/HCl, pH 7.4, 50% glycerol, 1 mM DTT, and 10 μg/ml of leupeptin, pepstatin, and antipain and then applied to a hydroxylapatite column (0.1 g per 1 ml of suspension, equilibrated with 10 mM potassium phosphate, pH 7.0, 30% glycerol, 1 mM DTT). The column is washed with four volumes of equilibration buffer at a flow rate of 20 to 30 ml/h. The HSL is eluted with a volume of equilibration buffer which contains 0.5 M potassium phosphate, then dialyzed (see above) and concentrated 5 to 10 times by ultrafiltration (Amicon Diaflo PM 10 filter) at 4° C. The partially purified HSL can be stored at −70° C. for 4 to 6 weeks.
6 mg of phosphatidylcholine and 6 mg of phosphatidylinositol are dissolved in 1 ml of chloroform each. 10 mg of NAG are dissolved in 1 ml of chloroform. […] The chloroform (225 μl total volume) is completely removed by overblowing with a stream of N2. The dried substrate can be stored at 4° C. for up to three days. For the preparation of the phospholipid vesicles/micelles having intercalated NAG (on the test day), the dried substrate is taken up in 20 ml of assay buffer (25 mM TRIS/HCl, pH 7.4; 150 mM NaCl) and two ultrasonic treatments with an ultrasonic probe (Branson Sonifier type 11, standard microtip): 1st treatment setting 2, 2×1 min, in between in each case 1 min on ice; 2nd treatment setting 4, 2×1 min, in between in each case 1 min on ice. […] Before use as a substrate (within the next 2 h), the solution is additionally incubated on ice for 15 min.
The assay is carried out at 30° C. for 60 min in 1.5 ml Eppendorf vessels or 96-hole plates.

O=C(CCCCCCCCCCCNc1ccc([N+](=O)[O-])c2nonc12)OCC(O)CO (centres unmarked) [Compound (3)]
Increase in the absorption at 481 nm (NAG 0.075 mg/ml, HSL 40 μg): 15502 ± 1077 arb. units | Increase in the absorption at 481 nm (NAG 0.1 mg/ml, HSL 5 μg): 1521 ± 119 arb. units | Increase in the absorption at 481 nm (NAG 0.1 mg/ml, HSL 20 μg): 6124 ± 577 arb. units | Increase in the absorption at 481 nm (NAG 0.1 mg/ml, HSL 40 μg): 19223 ± 1599 arb. units | Increase in the absorption at 481 nm (NAG 0.15 mg/ml, HSL 5 μg): 1983 ± 155 arb. units | Increase in the absorption at 481 nm (NAG 0.15 mg/ml, HSL 20 μg): 7544 ± 603 arb. units | Increase in the absorption at 481 nm (NAG 0.15 mg/ml, HSL 40 μg): 26730 ± 2069 arb. units | Increase in the absorption at 481 nm (NAG 0.2 mg/ml, HSL 5 μg): 2242 ± 186 arb. units | Increase in the absorption at 481 nm (NAG 0.2 mg/ml, HSL 20 μg): 8898 ± 961 arb. units | Increase in the absorption at 481 nm (NAG 0.2 mg/ml, HSL 40 μg): 31641 ± 2304 arb. units | Increase in the absorption at 481 nm (NAG 0.3 mg/ml, HSL 5 μg): 2489 ± 213 arb. units | Increase in the absorption at 481 nm (NAG 0.3 mg/ml, HSL 20 μg): 9734 ± 825 arb. units | Increase in the absorption at 481 nm (NAG 0.3 mg/ml, HSL 40 μg): 35953 ± 3355 arb. units | Increase in the absorption at 481 nm (PI/PC 0 mg/ml, PI:PC 1:1, HSL 20 μg, NAG 0.05 mg/ml): 134 ± 23 arb. units | Increase in the absorption at 481 nm (PI/PC 0 mg/ml, PI:PC 1:3, HSL 20 μg, NAG 0.05 mg/ml): 89 ± 12 arb. units | Increase in the absorption at 481 nm (PI/PC 0 mg/ml, PI:PC 3:1, HSL 20 μg, NAG 0.05 mg/ml): 173 ± 42 arb. units | Increase in the absorption at 481 nm (PI/PC 0.009 mg/ml, PI:PC 1:1, HSL 20 μg, NAG 0.05 mg/ml): 548 ± 76 arb. units | Increase in the absorption at 481 nm (PI/PC 0.009 mg/ml, PI:PC 1:3, HSL 20 μg, NAG 0.05 mg/ml): 289 ± 77 arb. units | Increase in the absorption at 481 nm (PI/PC 0.009 mg/ml, PI:PC 3:1, HSL 20 μg, NAG 0.05 mg/ml): 1437 ± 132 arb. units | Increase in the absorption at 481 nm (PI/PC 0.018 mg/ml, PI:PC 1:1, HSL 20 μg, NAG 0.05 mg/ml): 1430 ± 188 arb. units | Increase in the absorption at 481 nm (PI/PC 0.018 mg/ml, PI:PC 1:3, HSL 20 μg, NAG 0.05 mg/ml): 692 ± 94 arb. units | Increase in the absorption at 481 nm (PI/PC 0.018 mg/ml, PI:PC 3:1, HSL 20 μg, NAG 0.05 mg/ml): 2610 ± 306 arb. units | Increase in the absorption at 481 nm (PI/PC 0.075 mg/ml, PI:PC 1:1, HSL 20 μg, NAG 0.05 mg/ml): 1138 ± 125 arb. units | Increase in the absorption at 481 nm (PI/PC 0.075 mg/ml, PI:PC 1:3, HSL 20 μg, NAG 0.05 mg/ml): 1679 ± 143 arb. units | Increase in the absorption at 481 nm (PI/PC 0.075 mg/ml, PI:PC 3:1, HSL 20 μg, NAG 0.05 mg/ml): 3365 ± 402 arb. units | Increase in the absorption at 481 nm (PI/PC 0.15 mg/ml, PI:PC 1:1, HSL 20 μg, NAG 0.05 mg/ml): 745 ± 97 arb. units | Increase in the absorption at 481 nm (PI/PC 0.15 mg/ml, PI:PC 1:3, HSL 20 μg, NAG 0.05 mg/ml): 912 ± 103 arb. units | Increase in the absorption at 481 nm (PI/PC 0.15 mg/ml, PI:PC 3:1, HSL 20 μg, NAG 0.05 mg/ml): 2108 ± 256 arb. units | Increase in the absorption at 481 nm (PI/PC 0.3 mg/ml, PI:PC 1:1, HSL 20 μg, NAG 0.05 mg/ml): 335 ± 47 arb. units | Increase in the absorption at 481 nm (PI/PC 0.3 mg/ml, PI:PC 1:3, HSL 20 μg, NAG 0.05 mg/ml): 427 ± 56 arb. units | Increase in the absorption at 481 nm (PI/PC 0.3 mg/ml, PI:PC 3:1, HSL 20 μg, NAG 0.05 mg/ml): 913 ± 102 arb. units | Extinction change at 480 nm (standard conditions, 20 μg of partially purified HSL): 4000 arb. units

From patent US6783949B1, “Processes for determining whether a test substance contains lipases or lipase inhibitors” (Aventis Pharma Deutschland GmbH, priority 1999, dated 2004)
